Source: ChEMBL document CHEMBL4270599, “Synthesis of a 3'-C-ethynyl-β-d-ribofuranose purine nucleoside library: Discovery of C7-deazapurine analogs as potent antiproliferative nucleosides” (Eur J Med Chem, 2018)

Key:
Assay type in all cases: functional
[1] = system: M14; experiment: Growth inhibition of human M14 cells assessed as cell growth at 10^-7 M incubated for 48 hrs by sulforhodamine B assay relative to control; conditions: M14, 48 h, read-out: Activity
[2] = system: EKVX; experiment: Growth inhibition of human EKVX cells assessed as cell growth at 10^-6 M incubated for 48 hrs by sulforhodamine B assay relative to control; conditions: read-out: Activity
[3] = system: UACC-257; experiment: Cytotoxicity against human UACC257 cells after 48 hrs by SRB assay; conditions: UACC-257, 48 h
[4] = system: EKVX; experiment: Growth inhibition of human EKVX cells assessed as cell growth at 10^-7 M incubated for 48 hrs by sulforhodamine B assay relative to control; conditions: read-out: Activity
[5] = system: MDA-MB-231; experiment: Growth inhibition of human MDA-MB-231 cells assessed as cell growth at 10^-4 M incubated for 48 hrs by sulforhodamine B assay relative to control; conditions: MDA-MB-231, 48 h, read-out: Activity
[6] = system: MDA-MB-231; experiment: Growth inhibition of human MDA-MB-231 cells assessed as cell growth at 10^-5 M incubated for 48 hrs by sulforhodamine B assay relative to control; conditions: MDA-MB-231, 48 h, read-out: Activity
[7] = system: BT-549; experiment: Growth inhibition of human BT549 cells assessed as cell growth at 10^-7 M incubated for 48 hrs by sulforhodamine B assay relative to control; conditions: BT-549, 48 h, read-out: Activity
[8] = system: SN12C; experiment: Growth inhibition of human SN12C cells assessed as cell growth at 10^-7 M incubated for 48 hrs by sulforhodamine B assay relative to control; conditions: read-out: Activity
[9] = system: SN12C; experiment: Growth inhibition of human SN12C cells assessed as cell growth at 10^-8 M incubated for 48 hrs by sulforhodamine B assay relative to control; conditions: read-out: Activity
[10] = system: PC-3; experiment: Growth inhibition of human PC3 cells assessed as cell growth at 10^-8 M incubated for 48 hrs by sulforhodamine B assay relative to control; conditions: PC-3, 48 h, read-out: Activity
[11] = system: OVCAR-8; experiment: Growth inhibition of human OVCAR8 cells assessed as cell growth at 10^-8 M incubated for 48 hrs by sulforhodamine B assay relative to control; conditions: OVCAR-8, 48 h, read-out: Activity
[12] = system: NCI-H226; experiment: Growth inhibition of human NCI-H226 cells assessed as cell growth at 10^-7 M incubated for 48 hrs by sulforhodamine B assay relative to control; conditions: NCI-H226, 48 h, read-out: Activity
[13] = system: HCT-15; experiment: Growth inhibition of human HCT15 cells assessed as cell growth at 10^-4 M incubated for 48 hrs by sulforhodamine B assay relative to control; conditions: HCT-15, 48 h, read-out: Activity
[14] = system: A498; experiment: Cytotoxicity against human A498 cells after 48 hrs by SRB assay; conditions: A498, 48 h
[15] = system: BT-549; experiment: Growth inhibition of human BT549 cells assessed as cell growth at 10^-6 M incubated for 48 hrs by sulforhodamine B assay relative to control; conditions: BT-549, 48 h, read-out: Activity
[16] = system: HL-60(TB); experiment: Growth inhibition of human HL-60(TB) cells assessed as cell growth at 10^-7 M incubated for 48 hrs by sulforhodamine B assay relative to control; conditions: HL-60, 48 h, read-out: Activity
[17] = system: OVCAR-4; experiment: Growth inhibition of human OVCAR4 cells assessed as cell growth at 10^-7 M incubated for 48 hrs by sulforhodamine B assay relative to control; conditions: OVCAR-4, 48 h, read-out: Activity
[18] = system: UO-31; experiment: Growth inhibition of human UO31 cells assessed as cell growth at 10^-7 M incubated for 48 hrs by sulforhodamine B assay relative to control; conditions: UO-31, 48 h, read-out: Activity
[19] = system: K562; experiment: Cytotoxicity against human K562 cells after 48 hrs by SRB assay; conditions: K562, 48 h
[20] = system: CCRF-CEM; experiment: Growth inhibition of human CCRF-CEM cells assessed as cell growth at 10^-8 M incubated for 48 hrs by sulforhodamine B assay relative to control; conditions: read-out: Activity
[21] = system: M14; experiment: Cytotoxicity against human M14 cells after 48 hrs by SRB assay; conditions: M14, 48 h
[22] = system: SF-295; experiment: Growth inhibition of human SF295 cells assessed as cell growth at 10^-6 M incubated for 48 hrs by sulforhodamine B assay relative to control; conditions: SF-295, 48 h, read-out: Activity
[23] = system: UO-31; experiment: Cytotoxicity against human UO31 cells after 48 hrs by SRB assay; conditions: UO-31, 48 h
[24] = system: Hs-578T; experiment: Growth inhibition of human Hs 578T cells assessed as cell growth at 10^-7 M incubated for 48 hrs by sulforhodamine B assay relative to control; conditions: read-out: Activity
[25] = system: SNB-19; experiment: Cytotoxicity against human SNB19 cells after 48 hrs by SRB assay; conditions: SNB-19, 48 h
[26] = system: COLO 205; experiment: Cytotoxicity against human COLO205 cells after 48 hrs by SRB assay; conditions: COLO 205, 48 h
[27] = system: UO-31; experiment: Growth inhibition of human UO31 cells assessed as cell growth at 10^-8 M incubated for 48 hrs by sulforhodamine B assay relative to control; conditions: UO-31, 48 h, read-out: Activity
[28] = system: A498; experiment: Growth inhibition of human A498 cells assessed as cell growth at 10^-8 M incubated for 48 hrs by sulforhodamine B assay relative to control; conditions: A498, 48 h, read-out: Activity
[29] = system: SF-539; experiment: Cytotoxicity against human SF539 cells after 48 hrs by SRB assay; conditions: SF-539, 48 h
[30] = system: ACHN; experiment: Growth inhibition of human ACHN cells assessed as cell growth at 10^-8 M incubated for 48 hrs by sulforhodamine B assay relative to control; conditions: read-out: Activity
[31] = system: ACHN; experiment: Growth inhibition of human ACHN cells assessed as cell growth at 10^-6 M incubated for 48 hrs by sulforhodamine B assay relative to control; conditions: read-out: Activity
[32] = system: TK-10; experiment: Cytotoxicity against human TK10 cells after 48 hrs by SRB assay; conditions: TK-10, 48 h
[33] = system: ACHN; experiment: Growth inhibition of human ACHN cells assessed as cell growth at 10^-4 M incubated for 48 hrs by sulforhodamine B assay relative to control; conditions: read-out: Activity
[34] = read-out: LC50 (the source's name)
[35] = read-out: pLC50 (the source's name) (converted)

In the case of C#C[C@@]1(O)[C@@H](CO)O[C@@H](n2cc(F)c3c(N)ncnc32)[C@@H]1O, the growth at 0.1 µM [1] is reported as 95%, the growth at 1 µM [2] is reported as 43% and the CC50 [3, 34] is reported as > 100000 nM. For the same compound, the TGI ([3]; read-out: TGI) was 4640 nM, the GI50 ([3]; read-out: pGI50 (converted)) was 490 nM and the TGI ([3]; read-out: pTGI (converted)) was 4680 nM. For the same compound, the growth at 0.1 µM [4] was 86%, the growth at 100 µM [5] was -35% and the growth at 10 µM [6] was -24%. It also gave a growth at 0.1 µM [7] of 107%, a growth at 0.1 µM [8] of 80% and a growth at 0.01 µM [9] of 94%. The growth at 0.01 µM [10] was 92%, the growth at 0.01 µM [11] was 96% and the growth at 0.1 µM [12] was 95%. It also gave a growth at 100 µM [13] of -33%, a TGI ([14]; read-out: TGI) of 2270 nM and a GI50 ([14]; read-out: pGI50 (converted)) of 724 nM. For the same compound, the CC50 [14, 35] was 5890 nM, the TGI ([14]; read-out: pTGI (converted)) was 2290 nM and the growth at 1 µM [15] was 45%. It also gave a growth at 0.1 µM [16] of 103%, a growth at 0.1 µM [17] of 90% and a growth at 0.1 µM [18] of 104%. For the same compound, the CC50 [19, 34] was > 100000 nM, the TGI ([19]; read-out: TGI) was > 100000 nM and the GI50 ([19]; read-out: pGI50 (converted)) was 288 nM. For the same compound, the TGI ([19]; read-out: pTGI) was > 100000 nM, the growth at 0.01 µM [20] was 95% and the CC50 [21, 34] was > 100000 nM. It also gave a TGI ([21]; read-out: TGI) of 2390 nM, a GI50 ([21]; read-out: pGI50 (converted)) of 479 nM and a TGI ([21]; read-out: pTGI (converted)) of 2400 nM. It also gave a growth at 1 µM [22] of 40%, a TGI ([23]; read-out: TGI) of 2480 nM and a GI50 ([23]; read-out: pGI50 (converted)) of 468 nM. For the same compound, the CC50 [23, 35] was > 100000 nM, the TGI ([23]; read-out: pTGI (converted)) was 2510 nM and the growth at 0.1 µM [24] was 106%. For the same compound, the CC50 [25, 34] was > 100000 nM, the TGI ([25]; read-out: TGI) was 13700 nM and the GI50 ([25]; read-out: pGI50 (converted)) was 525 nM. The TGI ([25]; read-out: pTGI (converted)) was 13800 nM, the GI50 ([26]; read-out: GI50) was 263 nM and the TGI ([26]; read-out: TGI) was 1300 nM. The GI50 ([26]; read-out: pGI50 (converted)) was 263 nM, the CC50 [26, 35] was 9330 nM and the TGI ([26]; read-out: pTGI (converted)) was 1290 nM. The growth at 0.01 µM [27] was 94%, the growth at 0.01 µM [28] was 86% and the CC50 [29, 34] was > 100000 nM. It also gave a TGI ([29]; read-out: TGI) of 5290 nM, a GI50 ([29]; read-out: pGI50 (converted)) of 1320 nM and a TGI ([29]; read-out: pTGI (converted)) of 5250 nM. For the same compound, the growth at 0.01 µM [30] was 102%, the growth at 1 µM [31] was 9% and the CC50 [32, 34] was > 100000 nM. For the same compound, the TGI ([32]; read-out: TGI) was 6560 nM, the GI50 ([32]; read-out: pGI50 (converted)) was 741 nM and the TGI ([32]; read-out: pTGI (converted)) was 6610 nM. For the same compound, the growth at 100 µM [33] was 2%.
